Assay results as given in the NIST ThermoML archive (doi:10.1021/acs.jced.9b00170).
Numbers after ± are expanded uncertainties.

Experiment: activity coefficient (dimensionless); of the first substance listed, at infinite dilution; xn = mol fraction of the nth substance listed
Conditions: 101.33 kPa, Liquid, Chromatography, x1 = 0

SMILES	activity coefficient (313.1 K)	activity coefficient (333.1 K)	activity coefficient (353.1 K)
CC1CCCCC1 [methylcyclohexane] + CCCC[n+]1ccc(C)cc1.F[B-](F)(F)F	41.5 ± 1.9	34.8 ± 1.6	33.1 ± 1.5
Cc1ccccc1C [1,2-dimethylbenzene] + CCCC[N+]1(C)CCCC1.O=S(=O)([N-]S(=O)(=O)C(F)(F)F)C(F)(F)F	1.57 ± 0.06	1.59 ± 0.06	1.61 ± 0.06
CCCCCCC [heptane] + CCCC[N+]1(C)CCCC1.O=S(=O)([N-]S(=O)(=O)C(F)(F)F)C(F)(F)F	17 ± 0.79	15.3 ± 0.71	13.6 ± 0.62
Cc1ccccc1C [1,2-dimethylbenzene] + CCCC[n+]1ccc(C)cc1.F[B-](F)(F)F	4.48 ± 0.2	4.55 ± 0.21	4.59 ± 0.21
Cc1ccccc1C [1,2-dimethylbenzene] + CCCCn1cc[n+](C)c1.F[B-](F)(F)F	4.55 ± 0.21	4.51 ± 0.21	4.49 ± 0.2
CCCCCCCCCC [decane] + CCCCn1cc[n+](C)c1.F[B-](F)(F)F	177 ± 8.4	144 ± 6.8	125 ± 5.9
CC1CCCC1 [methylcyclopentane] + CCCCn1cc[n+](C)c1.F[B-](F)(F)F	35.6 ± 1.7	30.6 ± 1.4	28.8 ± 1.3
Cc1ccccc1 [toluene] + CCCC[n+]1ccc(C)cc1.F[B-](F)(F)F	2.66 ± 0.12	2.69 ± 0.12	2.73 ± 0.12
Cc1ccccc1 [toluene] + CCCCn1cc[n+](C)c1.F[B-](F)(F)F	3.28 ± 0.15	3.33 ± 0.15	3.4 ± 0.15
CCCCCCCCC [nonane] + CCCC[n+]1ccc(C)cc1.F[B-](F)(F)F	182 ± 8.6	153 ± 7.2	131 ± 6.2
CCCCCCC [heptane] + CCCCn1cc[n+](C)c1.F[B-](F)(F)F	78.7 ± 3.7	69 ± 3.2	62.2 ± 2.9
CCCCCC [hexane] + CCCC[N+]1(C)CCCC1.O=S(=O)([N-]S(=O)(=O)C(F)(F)F)C(F)(F)F	12.6 ± 0.58	10.2 ± 0.47	9.5 ± 0.44
CCCCCC [hexane] + CCCC[n+]1ccc(C)cc1.F[B-](F)(F)F	59.8 ± 2.8	52.4 ± 2.4	49 ± 2.3
CCCCCCC [heptane] + CCCC[n+]1ccc(C)cc1.F[B-](F)(F)F	84.8 ± 4	73.7 ± 3.5	67.4 ± 3.1
CC1CCCCC1 [methylcyclohexane] + CCCC[N+]1(C)CCCC1.O=S(=O)([N-]S(=O)(=O)C(F)(F)F)C(F)(F)F	8.53 ± 0.39	7.52 ± 0.34	6.76 ± 0.31
CCCCCCCC [octane] + CCCC[N+]1(C)CCCC1.O=S(=O)([N-]S(=O)(=O)C(F)(F)F)C(F)(F)F	23.7 ± 1.1	20.8 ± 0.96	19.1 ± 0.88
CC1CCCC1 [methylcyclopentane] + CCCC[n+]1ccc(C)cc1.F[B-](F)(F)F	31.3 ± 1.4	26.4 ± 1.2	25.8 ± 1.2
CCCCCCCC [octane] + CCCC[n+]1ccc(C)cc1.F[B-](F)(F)F	130 ± 6.1	107 ± 5	99.8 ± 4.7
CC1CCCC1 [methylcyclopentane] + CCCC[N+]1(C)CCCC1.O=S(=O)([N-]S(=O)(=O)C(F)(F)F)C(F)(F)F	10.3 ± 0.47	9.08 ± 0.42	8.11 ± 0.37
CC1CCCCC1 [methylcyclohexane] + CCCCn1cc[n+](C)c1.F[B-](F)(F)F	45.7 ± 2.1	40.5 ± 1.9	35.5 ± 1.6
CCCCCC [hexane] + CCCCn1cc[n+](C)c1.F[B-](F)(F)F	56.7 ± 2.6	47.8 ± 2.2	45.2 ± 2.1
CCCCCCCCC [nonane] + CCCC[N+]1(C)CCCC1.O=S(=O)([N-]S(=O)(=O)C(F)(F)F)C(F)(F)F	33.1 ± 1.5	29.2 ± 1.4	26.8 ± 1.2
CCCCCCCCCC [decane] + CCCC[n+]1ccc(C)cc1.F[B-](F)(F)F	306 ± 14	234 ± 11	223 ± 11
CCCCCCCC [octane] + CCCCn1cc[n+](C)c1.F[B-](F)(F)F	92.2 ± 4.3	83.7 ± 3.9	72.4 ± 3.4
CCCCCCCCCC [decane] + CCCC[N+]1(C)CCCC1.O=S(=O)([N-]S(=O)(=O)C(F)(F)F)C(F)(F)F	50.1 ± 2.3	45.3 ± 2.1	40.6 ± 1.9
Cc1ccccc1 [toluene] + CCCC[N+]1(C)CCCC1.O=S(=O)([N-]S(=O)(=O)C(F)(F)F)C(F)(F)F	1.22 ± 0.04	1.29 ± 0.04	1.37 ± 0.05
